pIC50: −log10 of the molar value. In brackets after ≈: the same amount, converted by molar mass.
Experiments:
[1] = system: Mycobacterium tuberculosis; test: Antimycobacterial activity against Mycobacterium tuberculosis H37Rv; type: functional
[2] = system: Candida; test: Antifungal activity against Candida assessed as growth inhibition; type: functional
[3] = system: Human immunodeficiency virus 1; test: Antiviral activity against HIV1 3B infected in human MT4 cells assessed as inhibition of virus-induced cytopathic effect after 5 days by MTT assay; type: functional, organism-based; conditions: Human immunodeficiency virus 1, 3B, MT4, 120 h
[4] = Cytotoxicity against human MT4 cells assessed as reduction cell viability after 5 days by MTT assay; type: cell-based
[5] = system: MDA-MB-468; test: Cytotoxicity against human MDA-MB-468 cells; type: functional, cell-based
[6] = Cytotoxicity against human HCT15 cells; type: functional, cell-based; conditions: HCT-15
[7] = system: T47D; test: Cytotoxicity against human T47D cells; type: functional, cell-based
[8] = Cytotoxicity against human SKOV3 cells; type: functional, cell-based; conditions: SK-OV-3
[9] = system: Trichomonas vaginalis; test: […] activity against Trichomonas vaginalis assessed as growth inhibition after 24 hrs; type: functional
[10] = system: Plasmodium falciparum; test: Antimalarial activity against Plasmodium falciparum; type: functional, organism-based
[11] = system: Leishmania infantum; test: Antileishmanial activity against Leishmania infantum; type: functional, organism-based
[12] = system: Leishmania amazonensis; test: Antileishmanial activity against Leishmania amazonensis; type: functional, organism-based
[13] = system: Leishmania infantum; test: Leishmanicidal activity against Leishmania infantum; type: functional, organism-based
[14] = system: Human immunodeficiency virus 1; test: Antiviral activity against Human immunodeficiency virus 1; type: functional, organism-based
[15] = system: Rattus norvegicus; test: Anti-inflammatory activity in Wistar rat at 100 mg/kg assessed as protection against edema formation dosed 1 hr before carrageenan challenge measured at end of 3rd hr by plethysmography; type: functional
[16] = molecular target: SRSF protein kinase 1 (Homo sapiens, UniProt Q96SB4); test: Inhibition of SRPK1 kinase (unknown origin)
Chain of SRSF protein kinase 1 (Q96SB4 whole entry): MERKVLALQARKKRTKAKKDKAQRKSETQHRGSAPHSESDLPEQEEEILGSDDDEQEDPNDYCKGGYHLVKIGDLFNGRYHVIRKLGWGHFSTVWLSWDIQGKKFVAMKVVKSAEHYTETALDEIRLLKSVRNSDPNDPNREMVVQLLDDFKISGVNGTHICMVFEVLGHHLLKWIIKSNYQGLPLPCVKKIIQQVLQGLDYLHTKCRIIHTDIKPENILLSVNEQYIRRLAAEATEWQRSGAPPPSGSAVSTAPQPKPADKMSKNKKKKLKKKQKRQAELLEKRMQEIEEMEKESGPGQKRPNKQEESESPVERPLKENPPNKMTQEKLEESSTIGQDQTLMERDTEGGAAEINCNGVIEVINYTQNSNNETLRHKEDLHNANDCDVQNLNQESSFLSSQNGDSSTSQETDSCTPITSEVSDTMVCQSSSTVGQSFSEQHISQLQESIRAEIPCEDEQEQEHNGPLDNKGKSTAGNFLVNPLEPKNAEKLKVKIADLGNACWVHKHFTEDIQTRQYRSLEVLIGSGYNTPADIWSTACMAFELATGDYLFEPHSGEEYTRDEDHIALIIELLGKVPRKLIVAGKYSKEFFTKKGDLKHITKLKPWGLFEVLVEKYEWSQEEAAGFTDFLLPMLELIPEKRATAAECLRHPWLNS

[17] = Drug elimination in pig at 50 ppm; type: ADME, organism-based, Sus scrofa; conditions: in vivo, read-out: Drug excretion
[18] = Primary phase half life in im dosed goat; type: ADME, organism-based, Capra hircus; conditions: in vivo, read-out: alphat1/2 (converted)
[19] = Elimination half life in iv dosed dog; type: ADME, organism-based, Canis lupus familiaris; conditions: in vivo, read-out: beta t1/2 (converted)
[20] = Drug elimination in human patient kidney at starting dose of 9 mg/m2 administered as 5 or 20 mins intravenous infusion on days 1 to 5 every 21 days; type: ADME; conditions: urine, read-out: Drug excretion
[21] = Elimination half life in iv dosed rat; type: ADME, organism-based; conditions: in vivo, read-out: beta t1/2 (converted)

SMILES: Cc1c(C(=O)Nc2ccccc2)[n+]([O-])c2cc(Cl)c(Cl)cc2[n+]1[O-]
- IC90 [1]: < 6.25 µg/mL

SMILES: O=c1[nH]c2cc3cccnc3c(Cl)c2nc1CBr
- MIC [2]: 31.2 µg/mL (≈ 96.3 µM)

SMILES: N#Cc1c(Nc2ccc(F)cc2)[n+]([O-])c2ccc(Cl)cc2[n+]1[O-]
- IC90 [1]: < 6.25 µg/mL

SMILES: c1ccc(-c2nc3ccccc3nc2-c2ccccc2)cc1
- IC50 [3]: 3.84 µg/mL (≈ 13.6 µM)
- CC50 at 120 h [4]: 15.3 µg/mL (≈ 54.1 µM)

SMILES: CCCCCNCc1ccc2c(c1)C(=O)c1nccnc1C2=O
- pIC50 [5]: 6.70
- pIC50 [6]: 7.30
- pIC50 [7]: 7.10
- pIC50 [8]: 6.40

SMILES: Cc1c(NCc2ccc(Cl)c(Cl)c2)[n+]([O-])c2cc(F)c(F)cc2[n+]1[O-]
- MIC [9]: 6.25 µg/mL (≈ 16.2 µM)

SMILES: [O-][n+]1c(Cl)c(OC2CCCCC2)nc2ccc(F)cc21
- pIC50 [10]: 5.39

SMILES: CCCNC(=O)c1c(C)[n+]([O-])c2ccc(Cl)cc2[n+]1[O-]
- IC90 [1]: < 0.19 µg/mL

SMILES: N#Cc1c(NC(=O)C2CCCCC2)[n+]([O-])c2ccc(Cl)cc2[n+]1[O-]
- pIC50 [11]: 5.60

SMILES: N#Cc1c(NC(=O)CCCCl)[n+]([O-])c2ccc(Cl)cc2[n+]1[O-]
- pIC50 [12]: 6.15

SMILES: N#Cc1c(NC(=O)N2CCN(c3ccc(C(F)(F)F)cc3)CC2)[n+]([O-])c2ccc(Cl)cc2[n+]1[O-]
- pIC50 [13]: 5.24

SMILES: C=CCCCOc1cnc2cc(C)c(C)cc2n1
- EC50 [14]: 0.22 µg/mL (≈ 0.908 µM)

SMILES: Cc1cc2ncc(=O)n(CC(O)CO)c2cc1C (centres undefined)
- EC50 [14]: 0.15 µg/mL (≈ 0.604 µM)

SMILES: Cc1nc2ccccc2nc1OCC(=O)N/N=C/c1ccc(Cl)cc1
- inhibition in vivo at 100 mg/kg [15]: 65.9%

SMILES: O=C(O)c1ccc2cc3nc(-c4cccs4)c(-c4cccs4)nc3cc2c1
- pIC50 [16]: 7.40

SMILES: COC(=O)N/N=C/c1c[n+]([O-])c2ccccc2[n+]1[O-] [CARBADOX]
- dose excreted [17]: 90%

SMILES: CC(=O)c1c(C)[n+]([O-])c2ccccc2[n+]1[O-] [MEQUINDOX]
- half-life [18]: 0.28 h

SMILES: C[C@@H](Oc1ccc(Oc2cnc3ccc(Cl)cc3n2)cc1)C(=O)O [R(+)XK469]
- half-life [19]: 13.2 h
- dose excreted [20]: 7%
- half-life [21]: 13.5 h
